Earlier results, collected in publication PMC6768041 (Chemistry Central Journal, 2018).

What was measured:
[1] = biological target: T1, hMAO-A (Homo sapiens, UniProt P21397); details: cited from earlier work
T1 construct: host or cells: insect cells (BTI-TN-5B14), recombinant baculovirus
T1 sequence (P21397 1-527): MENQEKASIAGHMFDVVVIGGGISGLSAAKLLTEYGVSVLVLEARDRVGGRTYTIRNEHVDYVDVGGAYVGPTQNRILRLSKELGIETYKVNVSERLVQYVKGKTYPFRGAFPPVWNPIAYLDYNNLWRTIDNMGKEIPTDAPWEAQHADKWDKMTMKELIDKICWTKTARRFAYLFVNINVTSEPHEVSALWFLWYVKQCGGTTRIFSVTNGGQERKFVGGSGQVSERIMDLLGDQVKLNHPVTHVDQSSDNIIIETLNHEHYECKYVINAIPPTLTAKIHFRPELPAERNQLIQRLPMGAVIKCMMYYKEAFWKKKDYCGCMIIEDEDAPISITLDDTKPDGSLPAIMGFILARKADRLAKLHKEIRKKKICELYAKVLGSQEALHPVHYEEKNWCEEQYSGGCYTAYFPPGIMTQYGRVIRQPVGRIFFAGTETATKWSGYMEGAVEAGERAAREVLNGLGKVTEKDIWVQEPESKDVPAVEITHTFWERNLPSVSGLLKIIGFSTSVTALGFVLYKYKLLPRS

[2] = biological target: T2, hMAO-B (Homo sapiens, UniProt P27338); set-up: method as in PMID 26592858; details: cited from earlier work
T2 construct: host or cells: insect cells (BTI-TN-5B14), recombinant baculovirus
T2 sequence (P27338 1-520): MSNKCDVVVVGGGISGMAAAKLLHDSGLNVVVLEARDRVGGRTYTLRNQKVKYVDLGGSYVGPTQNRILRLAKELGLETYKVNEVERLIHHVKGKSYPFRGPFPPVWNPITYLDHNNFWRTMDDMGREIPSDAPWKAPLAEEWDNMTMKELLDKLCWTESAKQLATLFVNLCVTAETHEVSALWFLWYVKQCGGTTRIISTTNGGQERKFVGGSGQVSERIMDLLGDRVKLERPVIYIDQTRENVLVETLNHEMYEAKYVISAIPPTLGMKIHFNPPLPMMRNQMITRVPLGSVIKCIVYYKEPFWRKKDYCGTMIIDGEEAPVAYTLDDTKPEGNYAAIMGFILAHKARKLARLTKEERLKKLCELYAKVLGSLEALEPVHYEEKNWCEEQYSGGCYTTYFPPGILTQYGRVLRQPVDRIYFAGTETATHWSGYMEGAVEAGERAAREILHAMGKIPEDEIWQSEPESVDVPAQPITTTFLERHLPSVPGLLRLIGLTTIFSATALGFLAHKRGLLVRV

In the case of `COc1cc(/C=C/C(=O)O)ccc1O` [Ferulic acid], the “MAO inhibition value hMAO-A” value [1] is given as 7.55 ± 0.49 µM and the “MAO inhibition value hMAO-B” value [2] is given as 24.00 ± 1.98 µM.
